Assay results taken from the SangsterLogP compilation.

Experiment: method code SF-CR+AS, from Fauchere, J.; Pliska, V. (1983). Hydrophobic parameters of aminoacid side chains from the partitioning of N-acetylaminoacid amides. Eur J Med Chem, 18(4)369-375.
Details: pH 7.1

| logD | SMILES |
| --- | --- |
| -1.7 | CC(=O)NC(=O)C(N)CSSCC(N)C(=O)NC(C)=O (configuration not stated) |
| -0.29 | CC(=O)N[C@H](CS)C(N)=O |

Experiment: method code SF-RC, from Fauchere, J.; Pliska, V. (1983). Hydrophobic parameters of aminoacid side chains from the partitioning of N-acetylaminoacid amides. Eur J Med Chem, 18(4)369-375.
Details: pH 7.1

| logD | SMILES |
| --- | --- |
| -0.03 | CCC(C)C(NC(C)=O)C(N)=O (configuration not stated) |
| -1.57 | CC(=O)NC(C(N)=O)C(C)O (configuration not stated) |
| -2.05 | CC(=O)NC(CCC(N)=O)C(N)=O (configuration not stated) |
| -1.87 | CC(=O)N[C@@H](CO)C(N)=O |
| -0.61 | CC(=O)N[C@H](C(N)=O)C(C)C |
| -1.34 | CC(=O)N1CCC[C@H]1C(N)=O |
| -0.13 | CC(=O)N[C@@H](CC(C)C)C(N)=O |
| -2.41 | CC(=O)N[C@@H](CC(N)=O)C(N)=O |
| 1.9 | CC(=O)NC(CC12CC3CC(CC(C3)C1)C2)C(N)=O (configuration not stated) |
| -1.7 | CC(=O)N[C@@H](Cc1cnc[nH]1)C(N)=O |
